Legend:
[1] = system: 3T3/H-Ras (NIH 3T3 clone 7 cells expressing genomic fragment of oncogenic H-Ras); experiment: Growth of NIH 3T3 cells over expressing H-Ras (SRB); type: cell-based; conditions: Mus musculus, NIH3T3, 72 h, growth of 3T3/H-Ras cells, 3 days with compound
Protocol: The following assay measures growth rates for NIH-3T3 cells expressing RAS. The purpose of the assay is to determine the effects of compounds on the growth of NIH 3T3 cells over expressing H-Ras.
• 96-well flat bottom sterile plates • 96-well round bottom sterile plates • sterile 25 mL or 100 mL reservoir • pipets, multi-channel pipetman • sterile pipet tips • sterile 15 mL and 50 mL tubes Reagents • 0.4% SRB in 1% acetic acid • 10 mM Tris base • 10% TCA • 1% acetic acid • sterile DMSO (Sigma) • compound in DMSO (100 mM or less stock solution) • Trypsin-EDTA (GIBCO BRL) Cell Line: 3T3/H-Ras (NIH 3T3 clone 7 cells expressing genomic fragment of oncogenic H-Ras).
The cells can be constructed using the following protocol: • 1. Subclone a gene fragment encoding Ras into a commercially available vector that will stably transfect NIH-3T3 cells. The fragment is from the genomic transforming allele of cHa-ras. • 2. Transfect NIH-3T3 cells with the subcloned vector by a calcium phosphate method. Select cells expressing the Ras construct in 2% serum in DMEM. Visible foci are observed after 2 weeks. Pool the transformed cells to generate a stably transformed cell line. Growth Medium: 2% calf serum/DMEM+2 mM glutamine, Pen/Strep Protocol: Day 0: Cell Plating:
This part of assay is carried out in a laminar flow hood. • 1. Trypsinize cells. Transfer 200 μL of cell suspension to 10 mL of isotone. Count cells with a Coulter Counter. • 2. Dilute cells in growth medium to 60,000 cell/mL. Transfer 100 μL of cells to each well in a 96-well flat bottom plate to give 6000 cells/well. • 3. Use half of plate (4 rows) for each comound and quadruplicate wells for each compound concentration, and a set of 4 wells for medium control. • 4. Gently shake plates to allow for uniform attachment of the cells. • 5. Incubate the plates at 37° C. in a 10% CO2 incubator. Day 1: Addition of Compound:
This part of assay is carried out in a laminar flow hood. • 1. In a 96-well round bottom plate, add 120 μL of growth medium containing 2×final % DMSO found in highest screening concentration of compound to columns 1 to 11. For example, if the highest concentration is […], and this is made from a 100 mM stock, 1×DMSO is 0.1%, so 2×DMSO is 0.2%. This plate is used to titrate out the compound, 4 rows per compound. • 2. In a sterile 15 mL tube, make a 2×solution of the highest screening concentration of compound in growth medium plus 2×DMSO. 1 mL per cell line is needed. The starting concentration of the compound is usually 100 μM but this concentration may vary depending upon the solubility of the compound. • 3. Transfer 240 μL of the 2×starting compound solution to qudruplicate wells in column 12 of the 96-well round bottom plate. Do 1:2 serial dilutions across the plate from right to left by transferring […] from column 12 to column 11, column 11 to 10 and so on through column 2. Transfer 100 μL of compound dilutions, and 100 μL of medium in column 1, onto 100 μL medium on cells in corresponding wells of 96-well flat bottom plate. Total volume per well should be 200 μL. • 4. Return the plate to the incubator and incubate for 3 days. Day 4: Development of Assay
This party of assay is carried out on the bench. • 1. Aspirate or pour off medium. Add 200 μL cold 10% TCA to each well to fix cells. Incubate plate for at least 60 min. at 4° C. • 2. Discard TCA and rinse wells 5 times with tap water. Dry plates upside down on paper towels. • 3. Stain cells with 100 μL/well 0.4% SRB for 10 min. • 4. Pour of SRB and rinse wells 5 times with 1% acetic acid. Dry plates completely upside down on paper towels. • 5. Solubilize dye with 100 μL/well 10 mM Tris base for 5-10 min. on shaker. • 6. Read plates on Dynatech ELISA Plate REader at 570 nm with reference at 630 nm.

[2] = system: NIH-3T3 cells expressing RAF-1; experiment: Growth of NIH-3T3 cells expressing RAF-1; type: cell-based; conditions: Mus musculus, NIH3T3; growth of NIH-3T3 cells overexpressing RAF
Source text: The following assay measures growth rates for NIH-3T3 cells expressing RAF-1. The protocol for the assay is described in detail in PCT Publication WO9640116, filed Jun. 5, 1996, by Tang et al., and entitled “Indolinone Compounds for the Treatment of Disease,” incorporated herein by reference in its entirety, including any drawings.

Nc1nc(N)c2c(Oc3ccccc3)cccc2n1 [Compound A-1, 2,4-Diamino-5-phenoxyquinazoline]
IC50 [1]: 0.85 µM
IC50 [2]: 0.16 µM

COc1ccc(Oc2cccc3nc(N)nc(N)c23)cc1 [Compound A-6, 2,4-Diamino-5-(4-methoxyphenoxy)quinazoline]
IC50 [1]: > 100 µM

Nc1nc(N)c2c(Oc3ccc(F)cc3)cccc2n1 [Compound A-7, 2,4-Diamino-5-(4-fluorophenoxy)quinazoline]
IC50 [1]: > 100 µM
IC50 [2]: 1.7 µM

CC(C)(C)c1ccc(Oc2cccc3nc(N)nc(N)c23)cc1 [Compound A-8, 2,4-Diamino-5-(4-tert-butylphenoxy)quinazoline]
IC50 [1]: 22.3 µM

Cc1ccc(Oc2cccc3nc(N)nc(N)c23)cc1 [Compound A-9, 2,4-Diamino-5-(4-methylphenoxy)quinazoline]
IC50 [1]: 20.4 µM
IC50 [2]: 5.9 µM

COc1ccccc1Oc1cccc2nc(N)nc(N)c12 [Compound A-22, 2,4-Diamino-5-(2-methoxyphenoxy)quinazoline]
IC50 [1]: 0.4 µM

COc1cccc(Oc2cccc3nc(N)nc(N)c23)c1 [Compound A-23, 2,4-Diamino-5-(3-methoxyphenoxy)quinazoline]
IC50 [1]: 0.6 µM

Nc1ncnc2cccc(Oc3ccc(OCc4ccccc4)cc3)c12 [Compound A-28, 4-Amino-5-(4-benzyloxyphenoxy)quinazoline]
IC50 [1]: 6 µM

Reference: patent US6911446B2, “Methods of modulating serine/threonine protein kinase function with quinazoline-based compounds” (Sugen, Inc., priority 1997, dated 2005)
